Results from ChEMBL document CHEMBL1137449, “A refined agonist pharmacophore for protease activated receptor 2” (Bioorg Med Chem Lett, 2007).
pEC50: −log10 of the molar value. The source made the active and inactive calls. The calls are words filed in the database; no cut-off is given here. Square brackets hold non-standard residues; d marks the D form. Peptide text beside a SMILES is read from it. Phe(4-NO2) = N[C@@H](Cc1ccc([N+](=O)[O-])cc1)C(=O)O

Experiments:
[1] = target: Proteinase-activated receptor 2 (Homo sapiens) (UniProt P55085); assay: Agonist activity at PAR2 expressed in 2-furoyl-LIGRLI-NH2 treated human HT29 cells assessed as intracellular calcium response; assay type: functional, cell-based; settings: HT-29
[2] = target: T1, Proteinase-activated receptor 2 (Homo sapiens, UniProt P55085); assay: Agonist activity at PAR2 expressed in human HT29 cells assessed as intracellular calcium release; assay type: functional, cell-based, HT-29
T1 sequence (P55085 whole entry): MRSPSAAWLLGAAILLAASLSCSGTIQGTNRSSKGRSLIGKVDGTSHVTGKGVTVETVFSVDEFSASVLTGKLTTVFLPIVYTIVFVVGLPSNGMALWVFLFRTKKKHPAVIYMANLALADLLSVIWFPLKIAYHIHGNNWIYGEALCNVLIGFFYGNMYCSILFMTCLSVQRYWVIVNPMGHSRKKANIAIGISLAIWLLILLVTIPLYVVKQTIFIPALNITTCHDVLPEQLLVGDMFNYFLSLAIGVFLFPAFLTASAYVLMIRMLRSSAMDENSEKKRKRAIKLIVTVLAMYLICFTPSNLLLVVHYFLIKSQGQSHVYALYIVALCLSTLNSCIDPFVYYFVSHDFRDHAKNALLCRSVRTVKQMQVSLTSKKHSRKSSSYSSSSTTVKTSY

CC[C@H](C)[C@H](NC(=O)[C@H](Cc1ccc([N+](=O)[O-])cc1)NC(=O)[C@H](CCCNC(=N)N)NC(=O)CNC(=O)[C@@H](NC(=O)[C@H](CC(C)C)NC(=O)[C@@H](N)CO)[C@@H](C)CC)C(N)=O (H-SLIGR[Phe(4-NO2)]I-NH2)
Activity [1]: inactive
pEC50 [2]: 6.40
